Results published in patent US4032654A, “Water-soluble, liquid concentrates of S-methyl-[(methyl-carbamoyl)oxy]-thioacetimidate and methyl N', N'-dimethyl-N-[(methyl-carbamoyl)oxy]-1-thiooxamimidate” (priority 1975, dated 1977).
In brackets after ≈: the same amount, converted by molar mass. Like-named read-outs stand apart in the source and are kept apart here.

Assays:
physchem [1] = conditions: -6° C.
Procedure: Solubility of Methomyl and Oxamyl (2:1 wt. ratio) in CH3 OH/H2 O at -6° C.
(§1) Methomyl and oxamyl were added to various methanol:water solvent systems ranging from 100 wt. % CH3 OH to 30 wt. % CH3 OH:70 wt. % H2 O. The methomyl and oxamyl were dissolved in a 2:1 weight ratio of 50 wt. % methomyl to 25 wt. % oxamyl in the solvent systems. The samples were equilibrated at -6° C. in a constant temperature freezer after which they were seeded with methomyl and oxamyl crystals to ensure crystallization of both materials. After crystal-liquid equilibrium was assured, liquid was removed at -6° C. and assayed for methomyl and oxamyl. Solids were also removed at -6° C., washed with hexane and dried. The solids were then dissolved in methanol to yield a 10 wt. % solution. This solution was evaluated by thin layer chromatography (TLC) to ensure the solids consisted of both methomyl and oxamyl.

physchem [2] = conditions: -6° C.; remark: listed apart in the source
Procedure: as §1, with “The methomyl and oxamyl were dissolved in a 2:1 weight ratio of 50 wt. % methomyl to 25 wt. % oxamyl in the solvent systems.” left out
Solubility of Methomyl and Oxamyl 1:2.5 wt. ratio in CH3 OH:H2 O at -6° C.
Example 3 was repeated by dissolving methomyl and oxamyl in a 1:2.5 weight ratio in the same solvent systems under the same conditions.

[3] = 60% cyclohexanone, 10% methanol, 30% water, -6° C.; for Solubility, both actives in solvent: Methomyl: with oxamyl
Procedure: Methomyl and/or oxamyl were added to a solvent system consisting of 60% cyclohexanone, 10% methanol and 30% water at room temperature at a concentration higher than the solubility limit at -6° C. The methomyl and oxamyl were added together, at weight ratios of 2:1, 1:1 and 1:2.5. The solutions were cooled to -6° C. and seeded with methomyl and/or oxamyl to initiate crystallization. The solutions remained at -6° C. until equilibrium was assured. The supernatant liquid in each sample was analyzed for methomyl and oxamyl by liquid chromatography.

[4] = 30% cyclohexanone, 30% cyclohexanol, 30% water, 10% methanol, -6° C.; for Solubility, both actives in solvent: Methomyl: with oxamyl
Procedure: Methomyl and Oxamyl Solubility In Cyclohexanone, Cyclohexanol, CH3 OH and H2 O at -6° C.
Methomyl and oxamyl were dissolved separately and in weight ratios of 1:1, 2:1 and 1:2.5 methomyl to oxamyl in a solvent system consisting of 30 wt. % cyclohexanone, 30 wt. % cyclohexanol, 30 wt. % water and 10 wt. % methanol. These solutions were equilibrated at -6° C. and seeded with methomyl and/or oxamyl crystals. The samples of liquid and solids remained at -6° C. until solid-liquid equilibrium was assured. A liquid sample was removed from each at -6° C. and assayed for methomyl and/or oxamyl. Solids were also isolated at -6° C., washed, dried and dissolved in CH3 OH to yield a 10% solution which was analyzed by TLC to ensure both methomyl and oxamyl crystals were present in the solids of the combination sample. All such solids contained both oxamyl and methomyl.
SOLUBILITY OF METHOMYL AND OXAMYL (2:1, 1:1 and 1:2.5 Wt.
RATIOS) IN CYCLOHEXANONE, CYCLOHEXANOL, CH3 OH AND H2 O

[5] = 80:20 wt acetone/H2O, -6° C.; for Solubility, both actives in solvent: Methomyl: with oxamyl
Procedure: Solubility of Methomyl and Oxamyl 80:20 Wt. Ratio Acetone:H2 O
Methomyl and oxamyl were dissolved in a solvent system consisting of 80 wt. % acetone and 20 wt. % water separately and in 1:1, 2:1 and 1:2.5 wt. ratios of methomyl and oxamyl. These solutions were equilibrated at -6° C. and were seeded with methomyl and/or oxamyl. They remained at -6° C. until solid-liquid equilibrium was assured. Liquid was removed from each sample at -6° C. and assayed for methomyl and oxamyl. Solids were also removed at -6° C., washed, dried and dissolved in methanol to yield a 10 wt. % solution which was evaluated by TLC for oxamyl and methomyl.

[6] = 40/60 ch3oh/h2o, Methomyl alone in solvent, alone
[7] = 50/50 ch3oh/h2o, Methomyl alone in solvent, alone
[8] = 60/40 ch3oh/h2o, Methomyl alone in solvent, alone
[9] = 70/30 ch3oh/h2o, Methomyl alone in solvent, alone
[10] = 80/20 ch3oh/h2o, Methomyl alone in solvent, alone
[11] = 90/10 ch3oh/h2o, Methomyl alone in solvent, alone

CNC(=O)ON=C(C)SC [Methomyl]
solubility (physchem [1]; 30/70 ch3oh/h2o, both actives in solvent: Methomyl, with oxamyl, 2:1 wt., 30/70 CH3OH/H2O): 241 mg/mL (≈ 1490 mM) | solubility (physchem [1]; [6]): 62 mg/mL (≈ 382 mM) | solubility (physchem [1]; 40/60 ch3oh/h2o, both actives in solvent: Methomyl, with oxamyl, 2:1 wt., 40/60 CH3OH/H2O): 422 mg/mL (≈ 2600 mM) | solubility (physchem [1]; [7]): 105 mg/mL (≈ 647 mM) | solubility (physchem [1]; 50/50 ch3oh/h2o, both actives in solvent: Methomyl, with oxamyl, 2:1 wt., 50/50 CH3OH/H2O): 461 mg/mL (≈ 2840 mM) | solubility (physchem [1]; [8]): 155 mg/mL (≈ 956 mM) | solubility (physchem [1]; 60/40 ch3oh/h2o, both actives in solvent: Methomyl, with oxamyl, 2:1 wt., 60/40 CH3OH/H2O): 552 mg/mL (≈ 3400 mM) | solubility (physchem [1]; [9]): 208 mg/mL (≈ 1280 mM) | solubility (physchem [1]; 70/30 ch3oh/h2o, both actives in solvent: Methomyl, with oxamyl, 2:1 wt., 70/30 CH3OH/H2O): 342 mg/mL (≈ 2110 mM) | solubility (physchem [1]; [10]): 263 mg/mL (≈ 1620 mM) | solubility (physchem [1]; 80/20 ch3oh/h2o, both actives in solvent: Methomyl, with oxamyl, 2:1 wt., 80/20 CH3OH/H2O): 598 mg/mL (≈ 3690 mM) | solubility (physchem [1]; [11]): 299 mg/mL (≈ 1840 mM) | solubility (physchem [1]; 90/10 ch3oh/h2o, both actives in solvent: Methomyl, with oxamyl, 2:1 wt., 90/10 CH3OH/H2O): 737 mg/mL (≈ 4540 mM) | Solubility, Methomyl alone in solvent (physchem [1]; alone, 100/0 CH3OH/H2O): 30.7 gms/100 gms | Solubility change when dissolved in combination (physchem [1]; methanol:water solvent systems, 2:1 wt. ratio dissolved initially): increased | Solubility, both actives in solvent: Methomyl (physchem [1]; with oxamyl, 2:1 wt., 100/0 CH3OH/H2O): 82.5 gms/100 gms | solubility (physchem [2]; 30/70 ch3oh/h2o, both actives in solvent: Methomyl, with oxamyl, 1:2.5 wt., 30/70 CH3OH/H2O): 156 mg/mL (≈ 962 mM) | solubility (physchem [2]; [6]): 62 mg/mL (≈ 382 mM) | solubility (physchem [2]; 40/60 ch3oh/h2o, both actives in solvent: Methomyl, with oxamyl, 1:2.5 wt., 40/60 CH3OH/H2O): 288 mg/mL (≈ 1780 mM) | solubility (physchem [2]; [7]): 105 mg/mL (≈ 647 mM) | solubility (physchem [2]; 50/50 ch3oh/h2o, both actives in solvent: Methomyl, with oxamyl, 1:2.5 wt., 50/50 CH3OH/H2O): 411 mg/mL (≈ 2530 mM) | solubility (physchem [2]; [8]): 155 mg/mL (≈ 956 mM) | solubility (physchem [2]; 60/40 ch3oh/h2o, both actives in solvent: Methomyl, with oxamyl, 1:2.5 wt., 60/40 CH3OH/H2O): 440 mg/mL (≈ 2710 mM) | solubility (physchem [2]; [9]): 206 mg/mL (≈ 1270 mM) | solubility (physchem [2]; 70/30 ch3oh/h2o, both actives in solvent: Methomyl, with oxamyl, 1:2.5 wt., 70/30 CH3OH/H2O): 220 mg/mL (≈ 1360 mM) | solubility (physchem [2]; [10]): 263 mg/mL (≈ 1620 mM) | solubility (physchem [2]; 80/20 ch3oh/h2o, both actives in solvent: Methomyl, with oxamyl, 1:2.5 wt., 80/20 CH3OH/H2O): 573 mg/mL (≈ 3530 mM) | solubility (physchem [2]; [11]): 299 mg/mL (≈ 1840 mM) | solubility (physchem [2]; 90/10 ch3oh/h2o, both actives in solvent: Methomyl, with oxamyl, 1:2.5 wt., 90/10 CH3OH/H2O): 699 mg/mL (≈ 4310 mM) | Solubility, Methomyl alone in solvent (physchem [2]; alone, 100/0 CH3OH/H2O): 30.7 gms/100 gms | Solubility, both actives in solvent: Methomyl (physchem [2]; with oxamyl, 1:2.5 wt., 100/0 CH3OH/H2O): 71.1 gms/100 gms | Solubility, Methomyl alone in solvent ([3]; alone): 29.5 gms/100 gms solvent | Solubility, both actives in solvent: Methomyl ([3]; ratio 1:1): 46.2 gms/100 gms solvent | Solubility, both actives in solvent: Methomyl ([3]; ratio 1:2.5): 66.6 gms/100 gms solvent | Solubility, both actives in solvent: Methomyl ([3]; ratio 2:1): 64.8 gms/100 gms solvent | Solubility, Methomyl alone in solvent ([4]; alone): 24.5 gms/100 gms solvent | Solubility, both actives in solvent: Methomyl ([4]; ratio 1:1): 39.6 gms/100 gms solvent | Solubility, both actives in solvent: Methomyl ([4]; ratio 1:2.5): 40.2 gms/100 gms solvent | Solubility, both actives in solvent: Methomyl ([4]; ratio 2:1): 42.7 gms/100 gms solvent | Solubility, Methomyl alone in solvent ([5]; alone): 41.4 gms/100 gms solvent | Solubility, both actives in solvent: Methomyl ([5]; ratio 1:1): 67.0 gms/100 gms solvent | Solubility, both actives in solvent: Methomyl ([5]; ratio 1:2.5): 66.6 gms/100 gms solvent | Solubility, both actives in solvent: Methomyl ([5]; ratio 2:1): 64.8 gms/100 gms solvent
